# pIC50: −log10 of the molar value.
# Biological target: T1, MeCP2-TBL1 interaction (MeCP2-SmBiT / TBL1-LgBiT) (Mus musculus, UniProt Q9QXE7)
# T1 construct: expressed in transfected cells; crude lysate used as a cell-free assay
# T1 sequence (Q9QXE7 166-527): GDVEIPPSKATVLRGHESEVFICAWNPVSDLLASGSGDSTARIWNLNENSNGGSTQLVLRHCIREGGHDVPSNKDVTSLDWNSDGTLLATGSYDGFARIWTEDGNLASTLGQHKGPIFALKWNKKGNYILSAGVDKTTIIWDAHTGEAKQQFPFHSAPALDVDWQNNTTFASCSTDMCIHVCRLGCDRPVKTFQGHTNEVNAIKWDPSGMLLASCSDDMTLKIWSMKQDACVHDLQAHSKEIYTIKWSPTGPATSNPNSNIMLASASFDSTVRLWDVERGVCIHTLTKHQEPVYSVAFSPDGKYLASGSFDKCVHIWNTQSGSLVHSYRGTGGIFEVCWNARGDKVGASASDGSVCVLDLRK
# Test: MeCP2-TBL1 NanoLuc luciferase complementation assay (cell-free, extracts of transfected HEK293 cells);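 for Inhibition percent: each compound tested at 20 µM final concentration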
# Format: binding, human
# Conditions: 20 µM, n = 7, t-test
# In short: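 Cell-free split NanoLuc: lysate of HEK293 cells co-expressing the MeCP2 C-terminal half-SmBiT and TBL1 WD domain-LgBiT, mixed 1:1 with furimazine. After 30 min at room temperature, luminescence was plate-median normalized.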
row,SMILES,"inhibition in MeCP2-TBL1 assay compared with control PKA-based assay, individual validation"
1,"C=C1C(=O)[C@]23[C@H](O)[C@H]1CC[C@H]2[C@@]12CO[C@]3(O)[C@@H](O)[C@@H]1C(C)(C)CC[C@@H]2O [oridonin, reference compound]",statistically significantly greater

# Same assay, conditions: 0.3–60 μM, PKA-based assay run in parallel
row,SMILES,separation between MeCP2-TBL1 inhibition and inhibition of the PKA control in dose response
1,"C=C1C(=O)[C@]23[C@H](O)[C@H]1CC[C@H]2[C@@]12CO[C@]3(O)[C@@H](O)[C@@H]1C(C)(C)CC[C@@H]2O [oridonin, reference compound]",only modest selectivity

# Same assay, conditions: ApexBio library screen, 20 µM, threshold SSMD* ≥ 3; read-out: inhibition in MeCP2-TBL1 assay after adjusting for activity in the PRKACA-PRKAR2A assay
row,SMILES,inhibition at 20 µM [%]
1,"C=C1C(=O)[C@]23[C@H](O)[C@H]1CC[C@H]2[C@@]12CO[C@]3(O)[C@@H](O)[C@@H]1C(C)(C)CC[C@@H]2O [oridonin, reference compound]",≥ 35

# Same assay, conditions: dose response 0.3–60 μM, triplicate, 30 min, luminescence normalized to DMSO; read-out: IC50, inhibition of MeCP2-TBL1 luminescence signal
row,SMILES,pIC50
1,"C=C1C(=O)[C@]23[C@H](O)[C@H]1CC[C@H]2[C@@]12CO[C@]3(O)[C@@H](O)[C@@H]1C(C)(C)CC[C@@H]2O [oridonin, reference compound]",4.47

# Same assay, conditions: primary screen of Asinex library, single well per compound
row,SMILES,Inhibition percent
1,CCn1cc(NC(=O)CN2[C@H]3CCCCC(=O)N[C@@]3(C)C[C@H]2c2cccc(C(F)(F)F)c2)c(C)n1 [BDH_33623667],-2.55
2,Cc1c[nH]c(-c2nccnc2CC2CCCN(C(=O)c3ccnc(Cc4cccc(F)c4)c3)C2)n1 (centres unmarked) [BDH_33521378],-5.26
3,COc1cccc(C2CN(Cc3ccccc3)C(=O)C23CCN(Cc2cccc(C(=O)O)c2)CC3)c1 (centres unmarked) [BDH_34129947],-0.66
4,CC1(C)Oc2ccc(OCc3ccccc3)cc2[C@@H]2O[C@H](CC(=O)O)CC[C@H]21 [BDG_34041764],0.20
5,C[C@@]12C[C@H](c3ccccc3)N(C(=O)CCCn3cccn3)[C@@H]1CCC[C@@H](O)[C@@H]2O [BDH_33903800],0.83
6,COc1cccc(C2CN(Cc3ccccc3)C(=O)C23CCN(Cc2ccccc2C(=O)O)CC3)c1 (centres unmarked) [BDH_34130263],5.00
7,CCN1CCN(C(=O)CCC2NC(=O)NC2=O)C(Cc2ccc(-c3ccccc3)cc2)C1=O (centres unmarked) [BDD_21846702],-2.65
8,COCCN1C(=O)C[C@@H](C(=O)NCc2ccccc2COC)[C@@H]1c1ccccc1 [BDC_32231307],-0.68
9,Cn1cc(C(=O)Nc2cccc(C(=O)N3CCCC(Cc4cnc5ccccc5c4)CC3)c2)cn1 (centres unmarked) [BDH_32361063],-0.14
10,O=C(O)CCC(=O)N[C@@H]1C[C@@H](Oc2cccc(C(F)(F)F)c2)[C@H](O)[C@H]1N1CCc2ccccc2C1 [BDG_34049652],-0.28
11,O=C1COC2(CCCN(C(=O)c3ccccc3Cn3ccnc3)CC2)CN1CCc1ccccc1 (centres unmarked) [BDH_32371928],-2.75
12,C[C@@]12C[C@H]3[C@@H](Cc4ccccc4)N[C@@H]1CCC[C@@H]2N3C(=O)c1cccc(Cc2ccccc2F)n1 [BDG_33393042],-2.99
13,COc1cccc2c1OC(C)(C)[C@H]1C[C@@H]3[C@H](CCN3CC(=O)O)O[C@H]21 [BDG_34128979],-2.31
14,O=C1CCCN1CCOc1cccc(C(=O)N2CCCC(Cc3ccnc4ccccc34)CC2)c1 (centres unmarked) [BDH_32358595],-2.39
15,CC(C)(NC(=O)Cc1cccc(F)c1)C(=O)N1CCCC2(CC1)CN(c1ccccc1)C(=O)O2 (centres unmarked) [BDH_32367867],2.91
16,O=C1CCCC[C@]2(CN(C(=O)CCCc3cn[nH]c3)C[C@H]2c2ccccc2F)N1 [BDG_34130330],-3.21
17,Cc1cc(C(=O)N2CCC(Cc3cccc4cccnc34)CC2)nc(C2(C)CCN(C)CC2)n1 [BDH_32363559],-3.40
18,CC1(C)Oc2ccc(Cl)cc2[C@H]2O[C@H]3CCN(C(=O)c4ccccc4OCC(=O)O)C[C@H]3C[C@@H]21 [BDG_34133540],1.43
19,CN(C)c1cncc(C2CCCN2C(=O)c2ccccc2OCCN2CCOCC2)n1 (centres unmarked) [BDH_32345043],1.00
20,CC(=O)N[C@H]1C[C@@H](C(=O)N(C)C)N(CC(=O)Nc2ccc3c(c2)OCCO3)[C@H]1c1ccccc1 [BDH_33617336],-1.52

# Same assay, conditions: primary screen of the Asinex library, sheet "Sargen output Asinex library", one well per compound
row,SMILES,Inhibition percent [%]
1,CC(=O)NC(F)(Cc1ccccc1)C(=O)N1CCC(Cc2cccc3cccnc23)CC1 (centres unmarked) [BDH_32336432],15.90
2,CCN(Cc1cnn(-c2ccc(C)cc2)c1)[C@@H]1CCO[C@H](c2ccc(C(=O)N(C)C)cc2)C1 [BDF_24511039],-0.31
3,CC(=O)N[C@@]12CN(C(C)=O)CC[C@@H]1[C@@H](c1ccccc1)N(CC(=O)Nc1cccc(C)c1C)C2 [BDH_33621434],5.23
4,Cn1cc(-c2cc(C(=O)N3CCCC(c4cccc(-c5cccc(C(N)=O)c5)n4)C3)ccn2)cn1 (centres unmarked) [BDH_32374050],-6.35
5,COc1ccc(C(=O)N2CCCC(Cc3ccc4ncccc4c3)C2)cc1NCc1ccncc1 (centres unmarked) [BDH_32359951],-4.50
6,CCOc1ccccc1NC(=O)N(C(C)c1ccccc1)C1CCn2c1nc1ccccc1c2=O (centres unmarked) [BDD_27845157],-3.22
7,O=C1OC2(CCN(C(=O)C3(c4ccccc4)CCCC3)C2)CN1Cc1ccc(F)cc1 (centres unmarked) [BDH_32289921],0.62
8,CC(=O)N[C@@]12CCN(CC(=O)Nc3ccc(C)c(F)c3)C[C@@H]1[C@@H](c1ccccc1)N(C(C)=O)C2 [BDH_33625631],2.58
9,Cc1cc(-c2cnc(C(C)(C)C)nc2C2CCN(Cc3ccc(N4CCCC4)cc3)CC2)on1 [BDD_25871827],3.48
10,Cc1nccn1Cc1ccccc1C(=O)N1CCCC(Cc2cccc3cccnc23)CC1 (centres unmarked) [BDH_32339298],3.41
11,NC(=O)c1cc(CC2CCCN(C(=O)c3ccnc(Cc4ccccc4)c3)CC2)ncn1 (centres unmarked) [BDH_33521416],-0.17
12,COc1ccc(Cc2cccc(C3CCN(C(=O)Cc4ccc(F)cc4)CC3)n2)cc1 [BDC_27855593],0.65
13,CN(CCC(=O)N1[C@H](Cc2ccccc2)C[C@]2(C)NC(=O)CCC[C@H]12)Cc1ccccn1 [BDG_24639113],-2.30
14,CC(=O)N[C@@]12CCN(CCOc3ccc(F)cc3)C[C@@H]1[C@@H](c1ccccc1)N(C(C)=O)C2 [BDG_30283198],-0.86
15,O=C1CCCN1CCOc1cccc(C(=O)N2CCCC(Cc3cnc4ccccc4c3)CC2)c1 (centres unmarked) [BDH_32358596],-12.20
16,COc1cccc([C@@H]2C[C@]3(C)NC(=O)CCCC[C@@H]3N2CC(=O)Nc2ccc(OC(F)F)cc2)c1 [BDH_33624322],7.98
17,CC(C)(C)OC(=O)N(Cc1ccccc1)C[C@@H]1C[C@H](O)[C@H](O)[C@H]1n1cnc2c(N)ncnc21 [BDH_34018090],-1.62
18,Cn1ccc(C(=O)Nc2ccccc2C(=O)N2CCC3(CN(Cc4ccccc4)C(=O)O3)C2)n1 (centres unmarked) [BDH_32374198],-4.02
19,CN1CCCC(CCCc2cnccn2)(C(=O)N2CCC(Cc3cccc4cccnc34)CC2)C1 (centres unmarked) [BDH_32356918],-2.36
20,COc1cccc(-c2cc(C(=O)N3[C@H]4CCC[C@H]5N(C)[C@H](Cc6ccccc6)[C@@H]3C[C@@]45C)on2)c1 [BDG_33506470],3.67
21,CCc1nccn1-c1ccc(C(=O)N2[C@H]3CCC[C@H]4N[C@@H](Cc5ccccc5)[C@@H]2C[C@@]34C)cn1 [BDG_33507727],-2.00
22,O=C(c1ccccc1OCCN1CCOCC1)N1CCCC(Cc2ccnc3ccccc23)CC1 (centres unmarked) [BDH_32353619],-1.00
23,Cc1ccc2nc(COCC(=O)N3CCCC3c3ccnc(-c4cccc(Cl)c4)n3)[nH]c2c1 (centres unmarked) [BDE_33630067],1.05
24,COc1cccc(-c2cc(C(=O)N3CCCCC3c3ncc(Cc4ccccc4)o3)on2)c1 (centres unmarked) [BDE_33514162],7.15

# Same assay, conditions: primary screen of the Asinex library, sheet "Sargen output Asinex library", one well per compound, Batch Ref. 1
row,SMILES,Inhibition percent [%]
1,O=C(NCC(=O)N1CCCCC1c1ncc(Cc2ccc(Cl)cc2)o1)c1cncc(O)c1 (centres unmarked) [BDE_33513655],-11.18
2,COc1ccc(C2(C(=O)N3CCCCC3CCNC(=O)c3ccccc3)CCCC2)cc1 (centres unmarked) [BDH_32336950],6.01
3,Cc1cccc(Oc2cncc(C3CCCN(C(=O)c4ccnc(N5CCN(C)CC5)c4)C3)n2)c1 (centres unmarked) [BDH_32358106],0.42
4,Cc1cc2ncn(CCC(=O)N3[C@H](Cc4ccccc4)C[C@]4(C)NC(=O)CCC[C@H]34)c2cc1C [BDH_33631266],-1.89
5,Nc1ncc(-c2cccc(C(F)(F)F)c2)c(C2CCCCN2C(=O)CCN2C(=O)CCNC2=O)n1 (centres unmarked) [BDH_33628597],2.35
6,O=C(COc1ncnc2ccccc12)N1C[C@@H]2CC[C@H](Oc3ccc(Cl)cc3)[C@@H]2C1 [BDG_33516371],0.45
7,CC(=O)Nc1cccc([C@@H]2CN(CCc3ccc(F)cc3)C[C@]23CCCCC(=O)N3)c1 [BDF_30280717],-0.37
8,Cc1cccnc1C(=O)N1CC2(CO[C@@H]3c4ccccc4OC(C)(C)[C@H]3C2)C1 [BDG_33739514],0.31
9,COc1ccccc1-c1ccc(CN2C[C@@H](c3ccccc3F)[C@@]3(CCCC(=O)N3)C2)cc1 [BDF_20367643],18.11
10,COc1cccc2c1OC(C)(C)[C@H]1CC[C@H](C3CCN(CC(=O)O)CC3)O[C@H]21 [BDG_34129039],-1.85
11,COc1cccc(Nc2ncccc2C(=O)N2CCOCC(Cc3nccn4cccc34)C2)c1 (centres unmarked) [BDH_32366009],-5.94
12,CC(C)=CCC[C@]1(C)Oc2cc(OCC(N)=O)ccc2[C@H]2OC[C@@]3(CCCN(C(=O)OC(C)(C)C)C3)C[C@@H]21 [BDH_33958782],7.79
13,COc1ccc(NC(=O)CN2[C@H]3CCCCC(=O)N[C@@]3(C)C[C@H]2c2cccc(OC)c2)cc1 [BDH_33626569],-0.22
14,CCOc1ccc(CN2CCCC2c2ncc(C(=O)NCc3ccc(F)cc3)c(C)n2)cc1 (centres unmarked) [BDC_23170699],-3.60

# From publication PMC9995496, “A screen for MeCP2-TBL1 interaction inhibitors using a luminescence-based assay” (Scientific Reports, 2023)
